We go through 30 compounds from article PMC12069340 (Frontiers in Cellular and Infection Microbiology, 2025).

SMILES strings stand for the structures. Structures can show the parent of a compound that is named as a salt.

One assay deals with A/PuertoRico/8/1934 (H1N1) virus. Kind of assay: microbe, parasite or virus in culture. In kind it is cell-based, influenza A virus. Conditions: 20 µM.
On to `CC(C)N(CCC(c1ccccc1)c1cc(CO)ccc1O)C(C)C` (stereo not drawn) [5-hydroxymethyl Tolterodine], for which the “NA Inhibition (%)” value stood at 6.5%.
On to `O=C(c1ccc(F)cc1)N1CCC[C@H](c2nc(-c3ccc(F)cc3)no2)C1` [ADX-47273], for which the “NA Inhibition (%)” value amounted to 34.4%.
Still for that read-out and setting: as for `CNCC(=O)c1ccc(O)c(O)c1.Cl` [Adrenalone HCl], the figure is 6.4%; as for `OC(CN1CCN(c2cccc(Cl)c2)CC1)C(c1ccccc1)c1ccccc1` (stereo not drawn) [BRL-15572], 24.4%; as for `CN1CCC(c2c[nH]c3ccc(O)cc23)CC1` [BRL-54443], 23.6%.
On the same count and under the same terms, as for `O=C(O)CCCN1CCC(O[C@@H](c2ccc(Cl)cc2)c2ccccn2)CC1.O=S(=O)(O)c1ccccc1` [Bepotastine Besilate], the figure is 21.1%; as for `CNCCc1ccccn1.Cl.Cl` [Betahistine 2HCl], 4.8%; as for `CN(C)CCC(c1ccc(Br)cc1)c1ccccn1.O=C(O)/C=C\C(=O)O` (stereo not drawn) [Brompheniramine hydrogen maleate], 12.4%.
Turning to `Cc1nc(C#Cc2ccnc(Cl)c2)c(C)n1-c1ccc(OC(F)(F)F)cc1` [CTEP (RO4956371)], the “NA Inhibition (%)” value is 31.0%.
Same read-out and setting: as for `CCC1=C[C@@H]2CN3CCc4c([nH]c5ccccc45)[C@@](C(=O)OC)(C2)[C@@H]13` [Catharanthine], the figure is 42.3%; as for `Cc1cccc([C@H](C)c2cnc[nH]2)c1C` [Dexmedetomidine], 21.4.
The same measure, in the same setting: next, `Cl.Cl.NCCc1c[nH]cn1` [Histamine 2HCl]: 2.5; `Br.Br.NCCCCCNCC12CC3CC(CC(C3)C1)C2` [IEM 1754 dihydrobroMide]: 23.2%.
As for `CCc1ccc(OCc2ccccc2C(=O)Nc2ccc3nc(C)cc(N)c3c2)cc1` [JTC-801], the “NA Inhibition (%)” value stood at 41.4%.
Still for that read-out and setting: next, `Cc1cccc(C#Cc2ccccc2)n1` [MPEP]: 32.6%.

The same assay, now with this note: Influenza A virus, H1N1, U-937, 48 h, read-out: NA Inhibition (%).
In the case of `CN(C)CCCN1c2ccccc2CCc2ccc(Cl)cc21` [Clomipramine HCl], the inhibition at 20 µM was -11.3%.
On the same count and under the same terms, as for `COc1cc2c(cc1OC)C(=O)C(CC1CCN(Cc3ccccc3)CC1)C2` (stereo not drawn) [Donepezil HCl], the figure is 4.5%; as for `CNC[C@H](O)c1ccc(O)c(O)c1` [Epinephrine HCl], 7.1%.
The same measure, in the same setting: next, `CC(C)(C(=O)O)c1ccc(C(O)CCCN2CCC(C(O)(c3ccccc3)c3ccccc3)CC2)cc1` (stereo not drawn) [Fexofenadine HCl]: -9.9%; `CN1CCN(C(=O)c2cc3cc(Cl)ccc3[nH]2)CC1` [JNJ-7777120]: 19.7%.
Regarding `C[C@]12N[C@H](Cc3ccccc31)c1ccccc12` [MK-801 (Dizocilpine), Dizocilpine], the inhibition at 20 µM turned out to be 20.9%.

The assay is the same for the next values; noted with them: Influenza A virus, H1N1, U-937, 48 h; read-out: NA Inhibition (%).
As for `COC(=O)C1=CCCN(C)C1` [Arecoline], the inhibition at 20 µM was -10.6%.
The same measure, in the same setting: next, `CN1[C@@H]2CC[C@H]1C[C@@H](OC(=O)C(CO)c1ccccc1)C2` (stereo partly drawn) [Atropine]: -5.8%; `COc1ccccc1N1CCN(CCN2C(=O)CC3(CCCC3)CC2=O)CC1` [BMY 7378]: 23.8%.
As for `CN1CCC(=C2c3ccccc3C=Cc3ccccc32)CC1` [Cyproheptadine HCl], the inhibition at 20 µM came to 4.6%.
On the same count and under the same terms, as for `CN1CCC[C@@H]1Cc1c[nH]c2ccc(CCS(=O)(=O)c3ccccc3)cc12` [Eletriptan HBr], the figure is 20.2%.
Same read-out and setting: as for `CC[N+](CC)(CC)CCOc1cccc(OCC[N+](CC)(CC)CC)c1OCC[N+](CC)(CC)CC` [Gallamine Triethiodide], the figure is -9%.
Same read-out and setting: next, `C[N+]1(C)[C@@H]2CC[C@H]1C[C@@H](OC(=O)C(O)c1ccccc1)C2` (stereo partly drawn) [Homatropine Methylbromide]: -12%; `CCc1cc2c(cc1CC)CC(NC[C@H](O)c1ccc(O)c3[nH]c(=O)ccc13)C2` [Indacaterol Maleate]: -6%; `CCN(CC)CC(=O)Nc1c(C)cccc1C` [Lidocaine]: 5.1%.

In general, inhibition refers to the relative decrease from the control value, in per cent.
